Laboratory results: article PMC4821601, “The Interactions of P-Glycoprotein with Antimalarial Drugs, Including Substrate Affinity, Inhibition and Regulation” (PLoS ONE, 2016)
Where two headings read alike, the source gives them in different places.

Legend:
[1] = Bidirectional transport (Papp, efflux ratio) of antimalarials through Caco-2 cell monolayers; assay type: in vitro ADME, human; settings: human; for Papp at 120 min: Caco-2, Caco-2 monolayers
Method: (§1) The initial experiments were conducted in mid-40s passage cells and repeated in early 80s passage Caco-2 cells. […] In order to maintain equivalent transport medium (HBSS/HBSS with inhibitor) level both outside and inside the chambers, 300 μL was used as medium in the apical chambers and 600 μL in the basolateral chambers. […] Drugs were co-incubated with MRCP, BCRP and ATP hydrolysis blockers to determine the involvement of other efflux mechanisms. Prior to the experiment, the transport medium, HBSS or HBSS with P-gp inhibitors were pre-incubated with the cells for 30 minutes. Following incubation, inserts were placed in new well plates and donor chamber is replaced with drug or drug with inhibitor and the receiver chamber with blank HBSS or HBSS with inhibitor. Transport medium was collected from the receiver chamber after stirring at time intervals of 30, 60, 90 and 120 minutes and was replaced with the same volume of fresh HBSS, or HBSS with inhibitor, when P-gp inhibitors were used in the study. At the end of the experiment 100 μL of medium was removed from the donor chamber in addition to medium collected from the receiver chamber during the study. The cells were then washed thoroughly in cold (4°C) PBS and cell membranes attached to the inserts were sonicated for 10 minutes in a sonicating water bath and centrifuged at 10,000 g for 10 minutes. Supernatant was frozen at -80°C until assayed. […] CL.vol=[…].vol = clearance volume (mL), n = time (min), Aa = amount in acceptor compartment at time n (pmols), Cd0 = concentration in donor compartment at time zero (nM), Vd = volume of the donor compartment (mL), Ca = concentration in acceptor compartment at the previous time point (nM), Vs = sample volume of previous time point (mL), Ac = amount of compound associated with the cells (pmol), Nfin = final time point (min). […] The cleared volume was plotted against time and the slope of the regression line was divided by the surface area to obtain the Papp values. […] The method from Davis and colleagues was adopted with slight modifications. Separations were performed using an Apollo C18 (5 μm, 4.6x150mm) column attached to a matched guard column (5 μm, 4.6x5.5 mm). […] The injection volume was 40 μL and column oven was maintained at 35°C. The analytes were detected at 222 nm and the retention time was 5.6 minutes. Assay developed by Pussard and co-workers were used and slight modifications were done to adjust laboratory conditions. Separation was done using a Prevail C18 (3 μm, 4.6x150mm) column attached to a Direct-connect^TM universal column prefilter. The mobile phase consisted of 20 mM (w/v) KH2PO4 in deionized water at pH 3.0 and acetonitrile (82:18) v/v. […] The injection volume was 40 μL and column oven was maintained at 30°C. The analytes were detected at 343 nm with a retention time of 2.4 minutes. […] Separations were performed using an Apollo C18 (5 μm, 4.6x150mm) column attached to matched guard column (5 μm, 4.6x5.5mm). […] The injection volume was 40 μL and column oven was maintained at 30°C. The analytes were detected at 660 nm with a retention time of 3.8 minutes. A 40 μL sample was spiked with 5 μL 0.5 mM artemisinin internal standard. […] The pipettor was adjusted to the maximum volume (100 μL). […] Pre-treated samples were loaded into the tips by gently aspirating and discarding into the same vial. The process was repeated 10 times in order to increase binding efficiency of drugs to the OMIX 96 C4 matrix. […] The LC-MS method described by […] and co-workers were modified to suit the LC-MS-MS conditions. […] Wexford, Ireland) at 40°C. […] Quantitation was performed in multiple reactions monitoring, MRM mode, using DUIS (ESI^+ and APCI^+) ion sources. […] The optimized mass spectra were acquired with an interface voltage of 4.5 kV, a detector voltage of 1.0 kV, a heat block temperature of 500°C and a desolvation temperature of 160°C.

Caco-2 cell monolayers = assay: as above; assay type: in vitro ADME, human
Method: as §1

P-glycoprotein (P-gp) = target: T1, P-glycoprotein (P-gp) (Homo sapiens, UniProt P08183); assay: Bidirectional transport of rhodamine123 through Caco-2 monolayers co-incubated with antimalarials (P-gp inhibitory properties); assay type: in vitro ADME
T1 construct: In-vitro Caco-2 cell monolayers were used here as a model for potential drug absorption related problems and P-gp mediated transport of drugs; endogenous in cells; host or cells: Caco-2 (human colon carcinoma, ATCC)
Method: The Caco-2 cells were seeded on 0.6 cm^2 […] Millipore PCF™ filter inserts at the cell density of 65,000 cells/cm^2 as done previously in the lab. Briefly, the cells were grown for 21–24 days to allow full maturation and formation of tight monolayers. The initial experiments were conducted in mid-40s passage cells and repeated in early 80s passage Caco-2 cells. The Trans epithelial electrical resistance (TEER) was measured immediately before and after the experiment using an epithelial voltage/ohm meter and an ENDOHM 12 chamber (World precision instruments, Sarasota, FL). TEER values were measured both before and after the study with readings above 300 Ω.cm^2 considered as acceptable for tight junctions. […] In order to maintain equivalent transport medium (HBSS/HBSS with inhibitor) level both outside and inside the chambers, 300 μL was used as medium in the apical chambers and 600 μL in the basolateral chambers. […] Drugs were co-incubated with MRCP, BCRP and ATP hydrolysis blockers to determine the involvement of other efflux mechanisms. Prior to the experiment, the transport medium, HBSS or HBSS with P-gp inhibitors were pre-incubated with the cells for 30 minutes. Following incubation, inserts were placed in new well plates and donor chamber is replaced with drug or drug with inhibitor and the receiver chamber with blank HBSS or HBSS with inhibitor. Transport medium was collected from the receiver chamber after stirring at time intervals of 30, 60, 90 and 120 minutes and was replaced with the same volume of fresh HBSS, or HBSS with inhibitor, when P-gp inhibitors were used in the study. At the end of the experiment 100 μL of medium was removed from the donor chamber in addition to medium collected from the receiver chamber during the study. The cells were then washed thoroughly in cold (4°C) PBS and cell membranes attached to the inserts were sonicated for 10 minutes in a sonicating water bath and centrifuged at 10,000 g for 10 minutes. Supernatant was frozen at -80°C until assayed. The Papp values of three well plates were determined using methods modified from Artursson’s group as described by Crowe and Lemaire.
CL.vol=Aa/{[Cd0×Vd−[Aa+(Ca×Vs)]−(Ac)×n/nfin]/Vd}
CL.vol = clearance volume (mL), n = time (min), Aa = amount in acceptor compartment at time n (pmols), Cd0 = concentration in donor compartment at time zero (nM), Vd = volume of the donor compartment (mL), Ca = concentration in acceptor compartment at the previous time point (nM), Vs = sample volume of previous time point (mL), Ac = amount of compound associated with the cells (pmol), Nfin = final time point (min). Papp = Apparent permeability (cm/sec) Rate of clearance (mL/min)=CL.vol / n Papp (cm/sec)=Rate of clearance / Surface area (cm^2)
The cleared volume was plotted against time and the slope of the regression line was divided by the surface area to obtain the Papp values. […] Mean Papp for Bas-Ap direction was divided by the Ap-Bas direction to obtain the efflux ratio and values above two were considered as drugs having true efflux transport.

[2] = design: method as in PMID 17337512; settings: monkeys ref 14; cited from earlier work

T1 sequence (P08183 whole entry): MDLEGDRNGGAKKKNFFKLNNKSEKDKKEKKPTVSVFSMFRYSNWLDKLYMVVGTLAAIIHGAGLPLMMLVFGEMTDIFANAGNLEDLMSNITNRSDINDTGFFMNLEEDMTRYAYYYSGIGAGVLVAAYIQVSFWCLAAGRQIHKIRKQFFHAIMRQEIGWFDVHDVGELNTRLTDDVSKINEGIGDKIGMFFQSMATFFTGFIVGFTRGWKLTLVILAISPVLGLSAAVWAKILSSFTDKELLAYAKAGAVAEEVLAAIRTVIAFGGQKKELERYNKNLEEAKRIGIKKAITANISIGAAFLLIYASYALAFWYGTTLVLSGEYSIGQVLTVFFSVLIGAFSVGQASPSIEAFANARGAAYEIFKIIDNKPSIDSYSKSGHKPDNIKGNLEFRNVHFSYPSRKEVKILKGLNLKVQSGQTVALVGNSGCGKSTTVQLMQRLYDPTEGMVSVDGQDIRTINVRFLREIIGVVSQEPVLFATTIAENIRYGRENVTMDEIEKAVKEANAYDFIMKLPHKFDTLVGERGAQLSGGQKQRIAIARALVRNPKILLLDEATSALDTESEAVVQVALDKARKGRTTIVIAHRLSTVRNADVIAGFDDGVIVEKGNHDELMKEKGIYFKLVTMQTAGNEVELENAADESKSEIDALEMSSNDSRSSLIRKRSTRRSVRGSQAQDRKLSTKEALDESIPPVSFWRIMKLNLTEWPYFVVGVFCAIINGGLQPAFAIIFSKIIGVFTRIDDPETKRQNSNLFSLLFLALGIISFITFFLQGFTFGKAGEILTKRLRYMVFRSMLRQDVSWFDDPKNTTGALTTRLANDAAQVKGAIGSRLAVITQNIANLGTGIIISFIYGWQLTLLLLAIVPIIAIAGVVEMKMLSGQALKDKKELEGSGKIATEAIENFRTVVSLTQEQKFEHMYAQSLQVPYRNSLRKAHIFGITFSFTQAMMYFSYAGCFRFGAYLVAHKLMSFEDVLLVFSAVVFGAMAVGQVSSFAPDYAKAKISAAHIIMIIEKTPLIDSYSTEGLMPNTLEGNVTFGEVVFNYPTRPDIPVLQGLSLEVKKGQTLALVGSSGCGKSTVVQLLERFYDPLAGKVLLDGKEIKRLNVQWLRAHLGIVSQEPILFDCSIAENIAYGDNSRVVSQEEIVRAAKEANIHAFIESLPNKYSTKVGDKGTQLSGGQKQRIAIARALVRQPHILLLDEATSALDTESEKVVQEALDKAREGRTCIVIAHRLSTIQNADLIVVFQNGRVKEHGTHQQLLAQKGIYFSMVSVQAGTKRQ

Q: Which Papp at 120 min ([1]; drug alone, read-out: Ap-Bas directional Papp, range over concentrations tested) does the source give for `C[C@H]1[C@H](N2CCS(=O)(=O)CC2)O[C@@H]2O[C@@]3(C)CC[C@H]4[C@H](C)CC[C@@H]1[C@@]24OO3` [AM, artemisone] here?
A: 37 to 60 ×10⁻⁶ cm/s

Q: And the Papp at 120 min ([1]; drug alone, read-out: Bas-Ap directional Papp, range over concentrations tested)?
A: 35 to 47 ×10⁻⁶ cm/s

Q: What about the Papp at 120 min ([1]; read-out: permeability across the gastrointestinal epithelium (class)) of the same molecule?
A: > 25 ×10⁻⁶ cm/s

Q: What about the Papp at 120 min ([1]; summary in abstract, methylene blue depending on the direction of transport, read-out: permeability) of the same molecule?
A: ~50 ×10⁻⁶ cm/s

Q: What about the efflux ratio at 120 min, 10 µM ([1]; Caco-2, Conc (μM) + inhibitor (μM): 10, Bas-Ap divided by Ap-Bas) of the same molecule?
A: 0.8

Q: And the Papp at 120 min, 10 µM ([1]; Caco-2, Conc (μM) + inhibitor (μM): 10, first-named drug measured, read-out: Papp Ap-Bas)?
A: 59.6 ± 4.2 ×10⁻⁶ cm/s

Q: And the Papp B→A at 120 min, 10 µM ([1]; Caco-2, Conc (μM) + inhibitor (μM): 10, first-named drug measured, read-out: Papp Bas-Ap)?
A: 46.9 ± 8.5 ×10⁻⁶ cm/s

Q: And the efflux ratio at 120 min, 20 µM ([1]; Caco-2, Conc (μM) + inhibitor (μM): 20, Bas-Ap divided by Ap-Bas)?
A: 0.9

Q: What about the Papp at 120 min, 20 µM ([1]; Caco-2, Conc (μM) + inhibitor (μM): 20, first-named drug measured, read-out: Papp Ap-Bas) of the same molecule?
A: 37 ± 4.7 ×10⁻⁶ cm/s

Q: What about the Papp B→A at 120 min, 20 µM ([1]; Caco-2, Conc (μM) + inhibitor (μM): 20, first-named drug measured, read-out: Papp Bas-Ap) of the same molecule?
A: 34.7 ± 2.7 ×10⁻⁶ cm/s

Q: What about the Net flow direction (Caco-2 cell monolayers; Conc (μM) + inhibitor (μM): 10) of the same molecule?
A: Diffusion (0.25)

Q: What about the Net flow direction (Caco-2 cell monolayers; Conc (μM) + inhibitor (μM): 20) of the same molecule?
A: Diffusion (0.69)

Q: What about the “drug absorption predicted from Papp” value (Caco-2 cell monolayers; based on FDA biopharmaceutical classification system) of the same molecule?
A: 100%

Q: And the P-gp inhibitory properties (P-glycoprotein (P-gp); at 100 μM)?
A: did not exhibit P-gp inhibitory properties

Q: What about the P-gp inhibitory properties (P-glycoprotein (P-gp); at test concentrations) of the same molecule?
A: did not exhibit P-gp inhibitory properties

Q: What about the in-vivo bioavailability [2] of the same molecule?
A: higher in-vivo bioavailability compared to artesunate
